{"source": "patent US20160024051A1", "about": "“SALTS AND SOLID FORMS OF ISOQUINOLINONES AND COMPOSITION COMPRISING AND METHODS OF USING THE SAME” (INFINITY PHARMACEUTICALS, INC., priority 2013, published 2016)", "key": {"[1]": {"conditions": "24 hours"}, "[2]": {"assay": "Storage at 25° C./93% RH for 1 week, re-analysis by XRPD/HPLC", "type": "physicochemical", "conditions": "after 1 week, XRPD"}, "[3]": {"assay": "Gravimetric vapour sorption (GVS)", "type": "physicochemical", "in_short": "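Moisture sorption isotherm at 25° C, 0-90% RH in 10% RH steps, 2 scans giving one full cycle, starting from 40% RH. Each step equilibrated 1-4 h until mass within 5% of predicted asymptote; solid re-checked by XRPD afterwards.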"}, "[4]": {"assay": "Thermodynamic aqueous solubility", "type": "physicochemical", "conditions": "at pH 6.47"}, "[5]": {"assay": "Drying experiments: heating in an oven at 125° C. for two hours, XRPD", "type": "physicochemical"}, "[6]": {"assay": "Storage at 40° C./75% RH (elevated humidity) for 1 week, re-analysis by XRPD/HPLC", "conditions": "after 1 week, XRPD"}, "[7]": {"assay": "pKa of the basic nitrogen atoms", "type": "physicochemical", "conditions": "at least two basic nitrogen atoms"}, "[8]": {"assay": "Free base solubility assessment in 15 solvents (free base Form 1)", "type": "physicochemical", "experimental": "Approximately 11 mg (0.022 mmol) portions of the free base Form 1 of Compound 1 (i.e., the compound of formula (I)) were weighed into 2 ml screw-topped HPLC vials. One of 15 solvents was added to each vial in a number of aliquots (up to 100 volumes), with shaking and if necessary with heating to 40° C., in an attempt to achieve dissolution."}, "[9]": {"assay": "PK properties in non-clinical animal species (all species)", "type": "in vivo, CD-1 mouse, Wistar rat, Cyno monkey, Beagle dog", "conditions": "non-clinical animal species", "experimental": "(§1) For example, Compound 1 bis-hydrogen sulfate monohydrate was evaluated in CD-1 mouse, Wistar rat, Cyno monkey, and Beagle dog. Cross species allometric scaling of CL (drug clearance) and Vss (volume at steady state) predicts low CL, high Vss and long T112 for Compound 1 in humans."}, "[10]": {"assay": "Cross species allometric scaling of CL and Vss to humans", "experimental": "as §1"}, "PI3K-δ": {"biological_target": "PI3K-δ (Homo sapiens, UniProt O00329)", "sequence (O00329 whole entry)": "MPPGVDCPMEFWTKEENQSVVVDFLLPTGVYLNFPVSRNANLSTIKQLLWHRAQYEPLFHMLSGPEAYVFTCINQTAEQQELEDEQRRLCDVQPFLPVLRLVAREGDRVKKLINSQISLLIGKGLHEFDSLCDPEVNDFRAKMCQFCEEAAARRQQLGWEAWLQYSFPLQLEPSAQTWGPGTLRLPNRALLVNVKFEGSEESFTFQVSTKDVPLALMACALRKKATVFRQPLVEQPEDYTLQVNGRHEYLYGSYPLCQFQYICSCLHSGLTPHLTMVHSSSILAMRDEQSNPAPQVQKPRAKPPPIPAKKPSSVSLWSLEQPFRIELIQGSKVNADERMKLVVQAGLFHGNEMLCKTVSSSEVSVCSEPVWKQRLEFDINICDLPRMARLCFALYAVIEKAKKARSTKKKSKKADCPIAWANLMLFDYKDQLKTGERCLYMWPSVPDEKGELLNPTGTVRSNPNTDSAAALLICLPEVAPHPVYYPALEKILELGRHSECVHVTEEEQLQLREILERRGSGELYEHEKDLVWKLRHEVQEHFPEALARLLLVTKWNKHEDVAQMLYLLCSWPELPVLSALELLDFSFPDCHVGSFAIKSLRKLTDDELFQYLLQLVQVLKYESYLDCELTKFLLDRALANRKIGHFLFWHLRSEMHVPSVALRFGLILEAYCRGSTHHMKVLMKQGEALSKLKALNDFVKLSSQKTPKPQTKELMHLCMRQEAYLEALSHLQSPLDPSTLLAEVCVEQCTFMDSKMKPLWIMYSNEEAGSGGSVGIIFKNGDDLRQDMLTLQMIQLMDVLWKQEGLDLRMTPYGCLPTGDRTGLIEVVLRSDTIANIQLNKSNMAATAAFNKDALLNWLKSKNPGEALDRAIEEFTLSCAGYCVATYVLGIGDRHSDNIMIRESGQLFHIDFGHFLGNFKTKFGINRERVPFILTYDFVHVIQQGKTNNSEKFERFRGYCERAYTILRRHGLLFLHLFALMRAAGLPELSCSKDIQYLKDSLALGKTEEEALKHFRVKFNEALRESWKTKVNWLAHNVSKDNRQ", "sequence (P27986 whole entry partner)": "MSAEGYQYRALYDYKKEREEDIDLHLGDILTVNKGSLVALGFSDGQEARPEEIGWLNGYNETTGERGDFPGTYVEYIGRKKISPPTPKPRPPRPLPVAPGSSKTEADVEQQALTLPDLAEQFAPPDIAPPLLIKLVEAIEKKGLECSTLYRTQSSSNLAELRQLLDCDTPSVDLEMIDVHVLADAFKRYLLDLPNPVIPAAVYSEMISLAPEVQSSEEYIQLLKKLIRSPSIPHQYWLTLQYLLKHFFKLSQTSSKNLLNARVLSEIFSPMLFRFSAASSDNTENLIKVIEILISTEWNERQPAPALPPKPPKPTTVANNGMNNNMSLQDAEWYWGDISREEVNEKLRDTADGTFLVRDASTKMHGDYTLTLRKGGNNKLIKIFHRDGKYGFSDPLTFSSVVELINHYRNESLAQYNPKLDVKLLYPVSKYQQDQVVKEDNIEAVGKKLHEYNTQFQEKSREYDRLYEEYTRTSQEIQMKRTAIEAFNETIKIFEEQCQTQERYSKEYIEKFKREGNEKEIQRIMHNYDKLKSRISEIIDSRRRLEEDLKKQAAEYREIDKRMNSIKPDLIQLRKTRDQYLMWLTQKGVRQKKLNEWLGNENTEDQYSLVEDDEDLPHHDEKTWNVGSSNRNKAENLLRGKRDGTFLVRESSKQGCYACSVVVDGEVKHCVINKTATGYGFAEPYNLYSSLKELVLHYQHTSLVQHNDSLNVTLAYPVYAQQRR", "assay": "Kd determination, PI3K-δ", "type": "binding"}, "PI3K-γ": {"biological_target": "PI3K-γ (Homo sapiens, UniProt P48736)", "sequence (P48736 whole entry)": "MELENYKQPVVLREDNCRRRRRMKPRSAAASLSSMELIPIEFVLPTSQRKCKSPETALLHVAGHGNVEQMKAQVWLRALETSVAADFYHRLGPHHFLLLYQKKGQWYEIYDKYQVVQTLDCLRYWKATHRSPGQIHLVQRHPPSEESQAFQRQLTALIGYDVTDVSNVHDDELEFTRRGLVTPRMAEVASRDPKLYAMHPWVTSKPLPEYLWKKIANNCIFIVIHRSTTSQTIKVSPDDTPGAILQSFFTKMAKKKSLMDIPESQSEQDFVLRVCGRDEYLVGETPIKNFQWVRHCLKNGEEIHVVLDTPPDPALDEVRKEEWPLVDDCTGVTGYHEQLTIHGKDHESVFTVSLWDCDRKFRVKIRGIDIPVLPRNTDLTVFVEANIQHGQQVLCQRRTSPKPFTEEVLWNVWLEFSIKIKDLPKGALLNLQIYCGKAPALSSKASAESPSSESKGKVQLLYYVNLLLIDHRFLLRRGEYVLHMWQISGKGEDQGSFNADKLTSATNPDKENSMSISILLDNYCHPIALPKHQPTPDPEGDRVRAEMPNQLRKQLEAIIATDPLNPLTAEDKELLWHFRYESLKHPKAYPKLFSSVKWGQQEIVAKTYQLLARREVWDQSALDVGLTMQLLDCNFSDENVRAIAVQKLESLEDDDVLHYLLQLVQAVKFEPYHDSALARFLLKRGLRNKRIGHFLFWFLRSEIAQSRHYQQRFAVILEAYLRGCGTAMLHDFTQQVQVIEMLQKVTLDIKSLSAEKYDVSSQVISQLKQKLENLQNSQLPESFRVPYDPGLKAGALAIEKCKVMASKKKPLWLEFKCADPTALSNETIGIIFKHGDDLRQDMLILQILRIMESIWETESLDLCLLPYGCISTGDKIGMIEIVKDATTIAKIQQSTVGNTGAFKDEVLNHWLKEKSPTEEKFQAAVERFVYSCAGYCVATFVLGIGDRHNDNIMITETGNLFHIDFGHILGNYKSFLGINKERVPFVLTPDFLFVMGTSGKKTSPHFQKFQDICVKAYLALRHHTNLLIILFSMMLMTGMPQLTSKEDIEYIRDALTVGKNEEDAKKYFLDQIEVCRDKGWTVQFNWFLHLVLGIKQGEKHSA", "assay": "Kd determination, PI3K-γ", "type": "binding"}, "PI3K-α": {"biological_target": "PI3K-α (Homo sapiens, UniProt P42336)", "sequence (P42336 whole entry)": "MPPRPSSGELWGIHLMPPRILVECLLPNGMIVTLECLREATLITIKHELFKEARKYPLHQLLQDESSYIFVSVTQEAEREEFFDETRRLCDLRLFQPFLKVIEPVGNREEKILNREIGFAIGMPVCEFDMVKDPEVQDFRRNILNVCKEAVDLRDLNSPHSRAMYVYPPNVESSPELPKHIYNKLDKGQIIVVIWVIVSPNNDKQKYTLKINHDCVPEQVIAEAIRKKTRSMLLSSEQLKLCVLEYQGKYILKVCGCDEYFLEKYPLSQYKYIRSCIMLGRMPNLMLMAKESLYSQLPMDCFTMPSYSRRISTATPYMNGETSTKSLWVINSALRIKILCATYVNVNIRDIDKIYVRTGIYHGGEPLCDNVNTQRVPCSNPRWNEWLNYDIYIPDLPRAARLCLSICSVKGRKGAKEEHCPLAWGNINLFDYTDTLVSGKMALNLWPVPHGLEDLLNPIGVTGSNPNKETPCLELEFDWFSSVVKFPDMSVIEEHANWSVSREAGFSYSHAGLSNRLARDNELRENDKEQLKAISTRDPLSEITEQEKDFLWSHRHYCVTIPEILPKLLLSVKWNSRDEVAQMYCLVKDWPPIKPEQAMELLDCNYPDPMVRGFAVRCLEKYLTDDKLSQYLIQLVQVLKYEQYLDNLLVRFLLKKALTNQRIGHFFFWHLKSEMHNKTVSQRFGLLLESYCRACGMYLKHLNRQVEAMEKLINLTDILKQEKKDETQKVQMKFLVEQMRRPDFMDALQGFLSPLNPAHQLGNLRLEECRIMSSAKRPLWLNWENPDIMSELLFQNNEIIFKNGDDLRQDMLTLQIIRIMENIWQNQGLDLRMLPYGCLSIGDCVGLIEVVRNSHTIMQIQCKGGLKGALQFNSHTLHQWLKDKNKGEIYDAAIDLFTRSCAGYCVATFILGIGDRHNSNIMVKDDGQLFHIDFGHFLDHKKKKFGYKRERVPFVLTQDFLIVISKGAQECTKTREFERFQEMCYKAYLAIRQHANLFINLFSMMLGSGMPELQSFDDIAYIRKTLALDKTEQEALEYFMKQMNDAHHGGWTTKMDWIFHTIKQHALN", "sequence (P27986 whole entry partner)": "as the sequence (P27986 whole entry partner) above", "assay": "Kd determination, PI3K-α", "type": "binding"}, "PI3K-β": {"biological_target": "PI3K-β (Homo sapiens, UniProt P42338)", "sequence (P42338 whole entry)": "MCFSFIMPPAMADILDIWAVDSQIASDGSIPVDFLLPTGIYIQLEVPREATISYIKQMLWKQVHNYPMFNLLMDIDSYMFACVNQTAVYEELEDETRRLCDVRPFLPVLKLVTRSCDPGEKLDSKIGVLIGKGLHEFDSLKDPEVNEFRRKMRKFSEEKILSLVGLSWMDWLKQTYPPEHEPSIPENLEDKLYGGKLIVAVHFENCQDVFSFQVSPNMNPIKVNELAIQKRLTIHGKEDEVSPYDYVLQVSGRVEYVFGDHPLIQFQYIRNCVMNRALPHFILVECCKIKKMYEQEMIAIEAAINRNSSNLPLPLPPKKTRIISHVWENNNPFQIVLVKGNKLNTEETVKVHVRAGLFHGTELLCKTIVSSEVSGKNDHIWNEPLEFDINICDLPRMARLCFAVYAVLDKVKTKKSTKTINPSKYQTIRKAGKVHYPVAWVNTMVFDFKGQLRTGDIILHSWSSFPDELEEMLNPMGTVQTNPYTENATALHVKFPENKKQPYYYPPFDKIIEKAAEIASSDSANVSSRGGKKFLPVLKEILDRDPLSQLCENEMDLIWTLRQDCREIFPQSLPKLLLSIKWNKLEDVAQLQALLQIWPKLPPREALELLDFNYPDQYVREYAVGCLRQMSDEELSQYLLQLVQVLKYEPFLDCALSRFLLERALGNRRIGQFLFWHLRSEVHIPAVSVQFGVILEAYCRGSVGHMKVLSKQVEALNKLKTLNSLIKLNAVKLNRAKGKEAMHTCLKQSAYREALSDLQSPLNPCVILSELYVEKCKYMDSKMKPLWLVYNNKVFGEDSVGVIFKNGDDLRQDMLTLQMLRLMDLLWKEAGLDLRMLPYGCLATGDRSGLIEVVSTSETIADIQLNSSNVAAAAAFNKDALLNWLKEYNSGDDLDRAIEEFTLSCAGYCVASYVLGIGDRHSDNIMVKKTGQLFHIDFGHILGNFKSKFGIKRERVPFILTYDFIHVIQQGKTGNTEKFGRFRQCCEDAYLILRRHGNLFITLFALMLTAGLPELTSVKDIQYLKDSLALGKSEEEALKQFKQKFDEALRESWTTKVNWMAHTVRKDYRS", "sequence (P27986 whole entry partner)": "as the sequence (P27986 whole entry partner) above", "assay": "Kd determination, PI3K-β", "type": "binding"}}}
{"compound": "COc1cc(-c2cccc3cc([C@H](C)Nc4nc(N)ncc4C#N)n(-c4ccccc4)c(=O)c23)ccn1", "values": [{"measurement": "crystallinity after standing at RT", "setting": "[1]", "result": "decreases"}]}
{"compound": "COc1cc(-c2cccc3cc([C@H](C)Nc4nc(N)ncc4C#N)n(-c4ccccc4)c(=O)c23)ccn1.O", "note": "[Compound 1 Free Base Form 2]", "values": [{"measurement": "Stability at 25° C./93% RH", "setting": "[2]", "result": "Very slight changes after 1 week"}, {"measurement": "GVS: immediate moisture uptake, up to", "setting": "[3]; 40-50% RH, stable on sorption up to 90% RH and desorption down to 10% RH", "result": "uptake (40-50% RH up to 5.7% w/w) which remains"}, {"measurement": "GVS: moisture on loading", "setting": "[3]; loaded at 40% RH, 25° C.", "result": "4.7% w/w moisture on loading. Immediate moisture"}, {"measurement": "GVS: XRPD after the experiment", "setting": "[3]; re-analysis by XRPD after GVS", "result": "40% RH. Slight changes by XRPD after the experiment."}, {"measurement": "Thermodynamic aqueous solubility", "setting": "[4]", "result": "0.005 mg/mL, at pH 6.47"}, {"measurement": "Drying experiments: changes by XRPD", "setting": "[5]", "result": "very slight changes by XRPD"}, {"measurement": "Stability at 40° C./75% RH", "setting": "[6]", "result": "Very slight changes after 1 week"}]}
{"compound": "COc1cc(-c2cccc3cc([C@H](C)Nc4nc(N)ncc4C#N)n(-c4ccccc4)c(=O)c23)ccn1", "note": "[Compound 1, (S)-2-amino-4-((1-(8-(2-methoxypyridin-4-yl)-1-oxo-2-phenyl-1,2-dihydroisoquinolin-3-yl)ethyl)amino)pyrimidine-5-carbonitrile]", "values": [{"measurement": "pKa", "setting": "[7]", "result": "~3.5"}, {"measurement": "volumes of solvent in which Compound 1 dissolved", "setting": "[8]; 2-MeTHF", "result": 50, "unit": "vol."}, {"measurement": "volumes of solvent in which Compound 1 dissolved", "setting": "[8]; DMSO", "result": 5, "unit": "vol."}, {"measurement": "volumes of solvent in which Compound 1 did not dissolve", "setting": "[8]; EtOAC", "result": "> 100", "unit": "vol."}, {"measurement": "volumes of solvent in which Compound 1 did not dissolve", "setting": "[8]; EtOH", "result": "> 100", "unit": "vol."}, {"measurement": "volumes of solvent in which Compound 1 did not dissolve", "setting": "[8]; EtOH/H2O", "result": "> 100", "unit": "vol."}, {"measurement": "volumes of solvent in which Compound 1 did not dissolve", "setting": "[8]; H2O", "result": "> 100", "unit": "vol."}, {"measurement": "volumes of solvent in which Compound 1 dissolved", "setting": "[8]; MIBK", "result": 40, "unit": "vol."}, {"measurement": "volumes of solvent in which Compound 1 dissolved", "setting": "[8]; MeOH, shaking, if necessary heating to 40° C.", "result": 75, "unit": "vol."}, {"measurement": "volumes of solvent in which Compound 1 dissolved", "setting": "[8]; MeOH/anisole (50/50 v/v)", "result": 10, "unit": "vol."}, {"measurement": "volumes of solvent in which Compound 1 did not dissolve", "setting": "[8]; TBME", "result": "> 100", "unit": "vol."}, {"measurement": "volumes of solvent in which Compound 1 dissolved", "setting": "[8]; THF", "result": 40, "unit": "vol."}, {"measurement": "volumes of solvent in which Compound 1 did not dissolve", "setting": "[8]; acetone", "result": "> 100", "unit": "vol."}, {"measurement": "volumes of solvent in which Compound 1 did not dissolve", "setting": "[8]; acetonitrile", "result": "> 100", "unit": "vol."}, {"measurement": "volumes of solvent in which Compound 1 did not dissolve", "setting": "[8]; anisole", "result": "> 100", "unit": "vol."}, {"measurement": "volumes of solvent in which Compound 1 dissolved", "setting": "[8]; chloroform", "result": 40, "unit": "vol."}, {"measurement": "oral bioavailability", "setting": "[9]", "result": "Good oral bioavailability"}, {"measurement": "CL (drug clearance) predicted in humans", "setting": "[10]; allometric scaling", "result": "low"}, {"measurement": "T112 predicted in humans", "setting": "[10]; allometric scaling", "result": "long"}, {"measurement": "Vss (volume at steady state) predicted in humans", "setting": "[10]; allometric scaling", "result": "high"}, {"measurement": "Forai in humans", "setting": "[10]; suggested by oral bioavailability in animals", "result": "good"}, {"measurement": "koff", "setting": "PI3K-δ", "result": 0.000252, "unit": "s⁻¹"}, {"measurement": "kon", "setting": "PI3K-δ", "result": "8.23e+06", "unit": "M⁻¹ s⁻¹"}, {"measurement": "Kd", "setting": "PI3K-δ; read-out: KD = koff/kon", "result": 0.0306, "unit": "nM"}, {"measurement": "koff", "setting": "PI3K-γ", "result": 0.000188, "unit": "s⁻¹"}, {"measurement": "kon", "setting": "PI3K-γ", "result": "1.65e+06", "unit": "M⁻¹ s⁻¹"}, {"measurement": "Kd", "setting": "PI3K-γ; read-out: KD = koff/kon", "result": 0.114, "unit": "nM"}, {"measurement": "koff", "setting": "PI3K-α", "result": 0.053, "unit": "s⁻¹"}, {"measurement": "kon", "setting": "PI3K-α", "result": "5.43e+06", "unit": "M⁻¹ s⁻¹"}, {"measurement": "Kd", "setting": "PI3K-α; read-out: KD = koff/kon", "result": 9.76, "unit": "nM"}, {"measurement": "koff", "setting": "PI3K-β", "result": 0.0126, "unit": "s⁻¹"}, {"measurement": "kon", "setting": "PI3K-β", "result": "2.03e+06", "unit": "M⁻¹ s⁻¹"}, {"measurement": "Kd", "setting": "PI3K-β; read-out: KD = koff/kon", "result": 6.24, "unit": "nM"}]}
